Laboratory results published in the NIST ThermoML archive (doi:10.1021/je200721d).
Numbers after ± are expanded uncertainties.

Assay: xn = mol fraction of the nth substance listed
Conditions: Liquid, Vibrating tube method

In the case of `CCCCCCCCCC` [decane] + CCCCCC, the mass density (343.06 K, 22000 kPa, x2 = 0.7524) is reported as 665.93 ± 0.47 kg/m3, the mass density (343.06 K, 23000 kPa, x2 = 0.2185) is reported as 702.17 ± 0.44 kg/m3 and the mass density (343.06 K, 23000 kPa, x2 = 0.7524) is reported as 666.87 ± 0.48 kg/m3. It also gave a mass density (343.06 K, 24000 kPa, x2 = 0.2185) of 702.97 ± 0.44 kg/m3, a mass density (343.06 K, 24000 kPa, x2 = 0.7524) of 667.79 ± 0.49 kg/m3 and a mass density (343.06 K, 25000 kPa, x2 = 0.2185) of 703.79 ± 0.45 kg/m3. It also gave a mass density (343.06 K, 25000 kPa, x2 = 0.7524) of 668.69 ± 0.5 kg/m3, a mass density (343.08 K, 1000 kPa, x2 = 0.4968) of 663.07 ± 0.27 kg/m3 and a mass density (343.08 K, 2000 kPa, x2 = 0.4968) of 664.35 ± 0.27 kg/m3. The mass density (343.08 K, 3000 kPa, x2 = 0.4968) was 665.55 ± 0.28 kg/m3, the mass density (343.08 K, 4000 kPa, x2 = 0.4968) was 666.8 ± 0.29 kg/m3 and the mass density (343.08 K, 5000 kPa, x2 = 0.4968) was 667.97 ± 0.3 kg/m3. For the same compound, the mass density (343.08 K, 6000 kPa, x2 = 0.4968) was 669.14 ± 0.31 kg/m3, the mass density (343.08 K, 7000 kPa, x2 = 0.4968) was 670.28 ± 0.31 kg/m3 and the mass density (343.08 K, 8000 kPa, x2 = 0.4968) was 671.4 ± 0.32 kg/m3. For the same compound, the mass density (343.08 K, 9000 kPa, x2 = 0.4968) was 672.48 ± 0.33 kg/m3, the mass density (343.08 K, 10000 kPa, x2 = 0.4968) was 673.55 ± 0.34 kg/m3 and the mass density (343.08 K, 11000 kPa, x2 = 0.4968) was 674.64 ± 0.35 kg/m3. It also gave a mass density (343.08 K, 12000 kPa, x2 = 0.4968) of 675.64 ± 0.36 kg/m3, a mass density (343.08 K, 13000 kPa, x2 = 0.4968) of 676.63 ± 0.37 kg/m3 and a mass density (343.08 K, 14000 kPa, x2 = 0.4968) of 677.63 ± 0.37 kg/m3. It also gave a mass density (343.08 K, 15000 kPa, x2 = 0.4968) of 678.63 ± 0.38 kg/m3, a mass density (343.08 K, 16000 kPa, x2 = 0.4968) of 679.61 ± 0.39 kg/m3 and a mass density (343.08 K, 17000 kPa, x2 = 0.4968) of 680.59 ± 0.4 kg/m3. It also gave a mass density (343.08 K, 18000 kPa, x2 = 0.4968) of 681.52 ± 0.41 kg/m3, a mass density (343.08 K, 19000 kPa, x2 = 0.4968) of 682.46 ± 0.42 kg/m3 and a mass density (343.08 K, 20000 kPa, x2 = 0.4968) of 683.4 ± 0.43 kg/m3. The mass density (343.08 K, 21000 kPa, x2 = 0.4968) was 684.32 ± 0.44 kg/m3, the mass density (343.08 K, 22000 kPa, x2 = 0.4968) was 685.22 ± 0.45 kg/m3 and the mass density (343.08 K, 23000 kPa, x2 = 0.4968) was 686.1 ± 0.46 kg/m3. The mass density (343.08 K, 24000 kPa, x2 = 0.4968) was 686.98 ± 0.46 kg/m3, the mass density (343.08 K, 25000 kPa, x2 = 0.4968) was 687.83 ± 0.47 kg/m3 and the mass density (352.75 K, 1000 kPa, x2 = 0.8991) was 617.37 ± 0.28 kg/m3. It also gave a mass density (352.75 K, 2000 kPa, x2 = 0.8991) of 618.91 ± 0.29 kg/m3, a mass density (352.75 K, 3000 kPa, x2 = 0.8991) of 620.43 ± 0.3 kg/m3 and a mass density (352.75 K, 4000 kPa, x2 = 0.8991) of 621.91 ± 0.31 kg/m3. It also gave a mass density (352.75 K, 5000 kPa, x2 = 0.8991) of 623.4 ± 0.3 kg/m3, a mass density (352.75 K, 6000 kPa, x2 = 0.8991) of 624.85 ± 0.33 kg/m3 and a mass density (352.75 K, 7000 kPa, x2 = 0.8991) of 626.29 ± 0.34 kg/m3. For the same compound, the mass density (352.75 K, 8000 kPa, x2 = 0.8991) was 627.7 ± 0.4 kg/m3, the mass density (352.75 K, 9000 kPa, x2 = 0.8991) was 629.09 ± 0.36 kg/m3 and the mass density (352.75 K, 10000 kPa, x2 = 0.8991) was 630.46 ± 0.37 kg/m3. It also gave a mass density (352.75 K, 11000 kPa, x2 = 0.8991) of 631.8 ± 0.4 kg/m3, a mass density (352.75 K, 12000 kPa, x2 = 0.8991) of 633.12 ± 0.39 kg/m3 and a mass density (352.75 K, 13000 kPa, x2 = 0.8991) of 634.41 ± 0.4 kg/m3. The mass density (352.75 K, 14000 kPa, x2 = 0.8991) was 635.69 ± 0.41 kg/m3, the mass density (352.75 K, 15000 kPa, x2 = 0.8991) was 636.93 ± 0.42 kg/m3 and the mass density (352.75 K, 16000 kPa, x2 = 0.8991) was 638.16 ± 0.43 kg/m3. The mass density (352.75 K, 17000 kPa, x2 = 0.8991) was 639.35 ± 0.44 kg/m3, the mass density (352.75 K, 18000 kPa, x2 = 0.8991) was 640.52 ± 0.45 kg/m3 and the mass density (352.75 K, 19000 kPa, x2 = 0.8991) was 641.66 ± 0.46 kg/m3. It also gave a mass density (352.75 K, 20000 kPa, x2 = 0.8991) of 642.78 ± 0.47 kg/m3, a mass density (352.75 K, 21000 kPa, x2 = 0.8991) of 643.87 ± 0.48 kg/m3 and a mass density (352.75 K, 22000 kPa, x2 = 0.8991) of 644.93 ± 0.49 kg/m3. It also gave a mass density (352.75 K, 23000 kPa, x2 = 0.8991) of 645.98 ± 0.5 kg/m3, a mass density (352.75 K, 24000 kPa, x2 = 0.8991) of 646.99 ± 0.52 kg/m3 and a mass density (352.75 K, 25000 kPa, x2 = 0.8991) of 647.98 ± 0.53 kg/m3. It also gave a mass density (352.99 K, 1000 kPa, x2 = 0.0456) of 682.21 ± 0.26 kg/m3, a mass density (352.99 K, 1000 kPa, x2 = 0.7524) of 632.44 ± 0.28 kg/m3 and a mass density (352.99 K, 2000 kPa, x2 = 0.0456) of 683.34 ± 0.27 kg/m3. The mass density (352.99 K, 2000 kPa, x2 = 0.7524) was 633.97 ± 0.29 kg/m3, the mass density (352.99 K, 3000 kPa, x2 = 0.0456) was 684.46 ± 0.27 kg/m3 and the mass density (352.99 K, 3000 kPa, x2 = 0.7524) was 635.47 ± 0.29 kg/m3. The mass density (352.99 K, 4000 kPa, x2 = 0.0456) was 685.57 ± 0.28 kg/m3, the mass density (352.99 K, 4000 kPa, x2 = 0.7524) was 636.89 ± 0.3 kg/m3 and the mass density (352.99 K, 5000 kPa, x2 = 0.0456) was 686.64 ± 0.29 kg/m3. For the same compound, the mass density (352.99 K, 5000 kPa, x2 = 0.7524) was 638.37 ± 0.31 kg/m3, the mass density (352.99 K, 6000 kPa, x2 = 0.0456) was 687.71 ± 0.29 kg/m3 and the mass density (352.99 K, 6000 kPa, x2 = 0.7524) was 639.77 ± 0.32 kg/m3. For the same compound, the mass density (352.99 K, 7000 kPa, x2 = 0.0456) was 688.77 ± 0.3 kg/m3, the mass density (352.99 K, 7000 kPa, x2 = 0.7524) was 641.14 ± 0.33 kg/m3 and the mass density (352.99 K, 8000 kPa, x2 = 0.0456) was 689.81 ± 0.31 kg/m3. It also gave a mass density (352.99 K, 8000 kPa, x2 = 0.7524) of 642.48 ± 0.34 kg/m3, a mass density (352.99 K, 9000 kPa, x2 = 0.0456) of 690.83 ± 0.32 kg/m3 and a mass density (352.99 K, 9000 kPa, x2 = 0.7524) of 643.77 ± 0.35 kg/m3. The mass density (352.99 K, 10000 kPa, x2 = 0.0456) was 691.84 ± 0.33 kg/m3, the mass density (352.99 K, 10000 kPa, x2 = 0.7524) was 645.03 ± 0.36 kg/m3 and the mass density (352.99 K, 11000 kPa, x2 = 0.0456) was 692.84 ± 0.33 kg/m3. The mass density (352.99 K, 11000 kPa, x2 = 0.7524) was 646.28 ± 0.37 kg/m3, the mass density (352.99 K, 12000 kPa, x2 = 0.0456) was 693.82 ± 0.34 kg/m3 and the mass density (352.99 K, 12000 kPa, x2 = 0.7524) was 647.51 ± 0.38 kg/m3. The mass density (352.99 K, 13000 kPa, x2 = 0.0456) was 694.79 ± 0.35 kg/m3, the mass density (352.99 K, 13000 kPa, x2 = 0.7524) was 648.71 ± 0.39 kg/m3 and the mass density (352.99 K, 14000 kPa, x2 = 0.0456) was 695.75 ± 0.36 kg/m3. It also gave a mass density (352.99 K, 14000 kPa, x2 = 0.7524) of 649.88 ± 0.4 kg/m3, a mass density (352.99 K, 15000 kPa, x2 = 0.0456) of 696.69 ± 0.37 kg/m3 and a mass density (352.99 K, 15000 kPa, x2 = 0.7524) of 651.03 ± 0.41 kg/m3. For the same compound, the mass density (352.99 K, 16000 kPa, x2 = 0.0456) was 697.62 ± 0.37 kg/m3, the mass density (352.99 K, 16000 kPa, x2 = 0.7524) was 652.16 ± 0.42 kg/m3 and the mass density (352.99 K, 17000 kPa, x2 = 0.0456) was 698.54 ± 0.38 kg/m3. It also gave a mass density (352.99 K, 17000 kPa, x2 = 0.7524) of 653.28 ± 0.43 kg/m3, a mass density (352.99 K, 18000 kPa, x2 = 0.0456) of 699.44 ± 0.39 kg/m3 and a mass density (352.99 K, 18000 kPa, x2 = 0.7524) of 654.35 ± 0.44 kg/m3. The mass density (352.99 K, 19000 kPa, x2 = 0.0456) was 700.33 ± 0.4 kg/m3.
